{"source": "patent US20240269139A1", "about": "“COMPOUNDS FOR TARGETED PROTEIN DEGRADATION OF KINASES” (DANA-FARBER CANCER INSTITUTE, INC., priority 2020, published 2024)", "key": {"[1]": {"target": "extended human kinome (kinase-like proteins) (Homo sapiens, UniProt Q16875)", "experiment": "Whole cell quantitative proteomics: extended kinome hits", "conditions": "Accession Q16875; experiment wp168", "method": "Whole cell multiplexed quantitative proteomics was employed to measure changes in abundance of the proteome in response to treatment with each of the kinase degrader molecules relative to DMSO (Table 1, Appendix I).\nCells were treated with DMSO (biological triplicate) or degrader at indicated dose and time and cells were harvested by centrifugation. […] Precipitated protein was resuspended in 4 M Urea, 50 mM HEPES pH 7.4, followed by dilution to 1 M urea with the addition of 200 mM EPPS, pH 8. Proteins were first digested with LysC (1:50: enzyme:protein) for 12 hours at room temperature. The LysC digestion was diluted to 0.5 M Urea with 200 mM EPPS pH 8 followed by digestion with trypsin (1:50; enzyme:protein) for 6 hours at 37° C. Tandem mass tag (TMT) reagents (Thermo Fisher Scientific) were dissolved in anhydrous acetonitrile (ACN) according to manufacturer's instructions. […] The 10, 11, or 16-plex labeling reactions were performed for 1.5 hours at room temperature and the reaction quenched by the addition of hydroxylamine to a final concentration of 0.3% for 15 minutes at room temperature. The sample channels were combined at a 1:1 ratio, desalted using C18 solid phase extraction cartridges (Waters®) and analyzed by LC-MS for channel ratio comparison. Samples were then combined using the adjusted volumes determined in the channel ratio analysis and dried down in a speed vacuum. The combined sample was then resuspended in 1% formic acid, and acidified (pH 2-3) before being subjected to desalting with C18 SPE (Sep-Pak®, Waters®). Samples were then offline fractionated into 96 fractions by high pH reverse-phase HPLC (Agilent® LC1260) through an aeris peptide xb-c18 column (Phenomenex®) with mobile phase A containing 5% acetonitrile and 10 mM NH4HCO3 in LC-MS grade H2O, and mobile phase B containing 90% acetonitrile and 10 mM NH4HCO3 in LC-MS grade H2O (both pH 8.0). The 96 resulting fractions were then pooled in a non-continuous manner into 24 fractions and desalted using C18 solid phase extraction plates (SOLA®, Thermo Fisher Scientific) followed by subsequent mass spectrometry analysis.\nData were collected using an Orbitrap Fusion™ Lumos™ mass spectrometer (Thermo Fisher Scientific, San Jose, CA, USA) coupled with a Proxeon EASY-nLC™ 1200 LC pump (Thermo Fisher Scientific) or an Orbitrap Eclipse™ Tribrid™ mass spectrometer (Thermo Fisher Scientific, San Jose, CA, USA) coupled with an UltiMate™ 3000 RSLCnano System. Peptides were separated on an EasySpray™ ES803a/ES803a.rev2 75 μm inner diameter microcapillary column (ThermoFisher Scientific).\nData dependent MS2 spectra were acquired in the ion trap with a normalized collision energy (NCE) set at 35%, AGC target set to 1.8×10^4 and a maximum injection time of 120 ms. MS3 scans were acquired in the Orbitrap with HCD collision energy set to 55%. AGC target set to 2×10^5, maximum injection time of 150 ms, resolution at 50,000 and with a maximum synchronous precursor selection (SPS) precursors set to 10.\nProteome Discoverer™ 2.1, 2.2 or 2.4 (Thermo Fisher Scientific) was used for .RAW file processing and controlling peptide and protein level false discovery rates, assembling proteins from peptides, and protein quantification from peptides."}, "[2]": {"target": "protein kinases (human kinome) (Homo sapiens, UniProt Q07912)", "sequence (Q07912 whole entry)": "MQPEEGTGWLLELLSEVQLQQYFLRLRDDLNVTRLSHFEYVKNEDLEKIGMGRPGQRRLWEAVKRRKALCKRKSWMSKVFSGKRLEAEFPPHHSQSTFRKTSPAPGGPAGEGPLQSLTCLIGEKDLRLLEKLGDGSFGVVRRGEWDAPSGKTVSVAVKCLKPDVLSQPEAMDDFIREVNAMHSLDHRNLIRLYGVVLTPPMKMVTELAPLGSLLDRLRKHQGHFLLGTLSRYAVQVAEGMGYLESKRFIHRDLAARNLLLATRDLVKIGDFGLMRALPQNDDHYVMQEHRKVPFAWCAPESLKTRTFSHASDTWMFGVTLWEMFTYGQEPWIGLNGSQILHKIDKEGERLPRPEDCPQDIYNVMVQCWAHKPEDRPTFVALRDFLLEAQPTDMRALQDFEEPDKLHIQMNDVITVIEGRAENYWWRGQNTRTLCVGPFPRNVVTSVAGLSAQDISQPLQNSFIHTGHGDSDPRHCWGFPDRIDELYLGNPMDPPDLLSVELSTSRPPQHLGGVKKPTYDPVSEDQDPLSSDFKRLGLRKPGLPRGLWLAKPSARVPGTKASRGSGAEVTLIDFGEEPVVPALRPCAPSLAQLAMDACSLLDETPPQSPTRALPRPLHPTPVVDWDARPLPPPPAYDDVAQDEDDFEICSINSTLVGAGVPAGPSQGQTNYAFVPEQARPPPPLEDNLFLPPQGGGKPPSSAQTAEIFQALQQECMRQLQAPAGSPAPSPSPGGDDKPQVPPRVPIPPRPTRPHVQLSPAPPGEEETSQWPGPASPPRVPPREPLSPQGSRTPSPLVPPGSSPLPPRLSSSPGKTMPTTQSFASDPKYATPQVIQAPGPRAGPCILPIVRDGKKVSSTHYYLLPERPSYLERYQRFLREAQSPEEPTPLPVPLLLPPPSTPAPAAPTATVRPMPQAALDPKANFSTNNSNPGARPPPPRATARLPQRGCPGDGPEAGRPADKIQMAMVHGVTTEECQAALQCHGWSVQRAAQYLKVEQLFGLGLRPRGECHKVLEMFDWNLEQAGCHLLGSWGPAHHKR", "format": "cell-based"}, "[3]": {"target": "protein kinases (human kinome) (Homo sapiens, UniProt P41240)", "sequence (P41240 whole entry)": "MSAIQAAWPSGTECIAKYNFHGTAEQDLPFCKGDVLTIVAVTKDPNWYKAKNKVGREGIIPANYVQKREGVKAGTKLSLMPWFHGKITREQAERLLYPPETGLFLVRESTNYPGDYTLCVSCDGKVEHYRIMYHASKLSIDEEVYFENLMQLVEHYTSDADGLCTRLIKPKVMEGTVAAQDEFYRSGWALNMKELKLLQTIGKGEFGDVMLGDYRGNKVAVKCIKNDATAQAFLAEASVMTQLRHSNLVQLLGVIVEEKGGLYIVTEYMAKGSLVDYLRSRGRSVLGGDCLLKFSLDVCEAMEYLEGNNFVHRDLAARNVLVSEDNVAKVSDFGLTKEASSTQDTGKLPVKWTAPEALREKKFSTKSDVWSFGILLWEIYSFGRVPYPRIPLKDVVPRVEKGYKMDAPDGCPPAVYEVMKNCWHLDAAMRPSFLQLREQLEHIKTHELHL", "format": "cell-based", "conditions": "experiment wp168"}, "[4]": {"target": "protein kinases (human kinome) (Homo sapiens, UniProt P11802)", "format": "cell-based", "conditions": "experiment wp168"}, "[5]": {"tested_on": "protein kinases (human kinome)", "format": "cell-based"}, "[6]": {"target": "protein kinases (human kinome) (Homo sapiens, UniProt P49759)", "format": "cell-based"}, "[7]": {"target": "protein kinases (human kinome) (Homo sapiens, UniProt P45984)", "format": "cell-based", "conditions": "MAPK9 P45984-1; experiment wp168"}, "[8]": {"target": "protein kinases (human kinome) (Homo sapiens, UniProt P07947)", "format": "cell-based", "conditions": "YES1 (P07947), experiment wp168"}, "[9]": {"target": "T1, protein kinases (human kinome) (Homo sapiens, UniProt Q8TAS1)", "T1 sequence (Q8TAS1 1-419)": "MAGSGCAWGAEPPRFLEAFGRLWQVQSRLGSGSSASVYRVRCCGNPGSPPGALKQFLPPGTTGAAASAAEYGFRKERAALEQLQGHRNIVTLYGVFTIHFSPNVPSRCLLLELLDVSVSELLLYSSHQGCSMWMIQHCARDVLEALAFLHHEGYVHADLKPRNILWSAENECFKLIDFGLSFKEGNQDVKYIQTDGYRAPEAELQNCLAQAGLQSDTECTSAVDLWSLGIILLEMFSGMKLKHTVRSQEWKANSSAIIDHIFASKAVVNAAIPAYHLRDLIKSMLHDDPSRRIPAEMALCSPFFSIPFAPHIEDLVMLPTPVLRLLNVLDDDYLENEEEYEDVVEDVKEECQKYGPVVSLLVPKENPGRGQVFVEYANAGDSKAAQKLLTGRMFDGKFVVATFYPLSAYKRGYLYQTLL", "format": "cell-based", "conditions": "experiment wp168"}, "[10]": {"target": "protein kinases (human kinome) (Homo sapiens, UniProt Q9H0K1)", "sequence (Q9H0K1 whole entry)": "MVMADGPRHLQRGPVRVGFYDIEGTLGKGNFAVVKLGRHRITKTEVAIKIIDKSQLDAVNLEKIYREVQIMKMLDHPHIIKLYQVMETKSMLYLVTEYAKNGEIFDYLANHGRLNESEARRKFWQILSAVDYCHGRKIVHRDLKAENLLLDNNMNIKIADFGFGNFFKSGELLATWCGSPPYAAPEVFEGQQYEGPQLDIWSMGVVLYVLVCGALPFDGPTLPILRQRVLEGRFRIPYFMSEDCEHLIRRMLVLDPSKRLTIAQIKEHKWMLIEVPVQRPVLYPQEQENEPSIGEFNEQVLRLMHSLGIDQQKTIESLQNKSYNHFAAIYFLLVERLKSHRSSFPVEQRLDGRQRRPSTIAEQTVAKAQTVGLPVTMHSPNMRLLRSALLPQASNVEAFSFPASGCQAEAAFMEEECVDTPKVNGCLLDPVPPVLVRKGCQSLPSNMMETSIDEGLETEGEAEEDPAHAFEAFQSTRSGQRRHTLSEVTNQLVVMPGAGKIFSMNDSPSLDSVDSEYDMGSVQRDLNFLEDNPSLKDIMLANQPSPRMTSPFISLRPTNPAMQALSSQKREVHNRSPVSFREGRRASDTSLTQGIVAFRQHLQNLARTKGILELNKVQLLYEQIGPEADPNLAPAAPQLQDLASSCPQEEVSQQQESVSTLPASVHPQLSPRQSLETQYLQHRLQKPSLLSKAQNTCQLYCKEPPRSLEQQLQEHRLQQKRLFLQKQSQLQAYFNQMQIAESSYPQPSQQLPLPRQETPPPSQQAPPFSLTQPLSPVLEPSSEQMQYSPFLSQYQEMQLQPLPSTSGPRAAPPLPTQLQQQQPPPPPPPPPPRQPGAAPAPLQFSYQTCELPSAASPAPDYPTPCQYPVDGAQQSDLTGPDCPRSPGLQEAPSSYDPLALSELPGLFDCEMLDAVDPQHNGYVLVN", "format": "cell-based", "conditions": "experiment wp168"}, "[11]": {"target": "protein kinases (human kinome) (Homo sapiens, UniProt P12931)", "sequence (P12931 whole entry)": "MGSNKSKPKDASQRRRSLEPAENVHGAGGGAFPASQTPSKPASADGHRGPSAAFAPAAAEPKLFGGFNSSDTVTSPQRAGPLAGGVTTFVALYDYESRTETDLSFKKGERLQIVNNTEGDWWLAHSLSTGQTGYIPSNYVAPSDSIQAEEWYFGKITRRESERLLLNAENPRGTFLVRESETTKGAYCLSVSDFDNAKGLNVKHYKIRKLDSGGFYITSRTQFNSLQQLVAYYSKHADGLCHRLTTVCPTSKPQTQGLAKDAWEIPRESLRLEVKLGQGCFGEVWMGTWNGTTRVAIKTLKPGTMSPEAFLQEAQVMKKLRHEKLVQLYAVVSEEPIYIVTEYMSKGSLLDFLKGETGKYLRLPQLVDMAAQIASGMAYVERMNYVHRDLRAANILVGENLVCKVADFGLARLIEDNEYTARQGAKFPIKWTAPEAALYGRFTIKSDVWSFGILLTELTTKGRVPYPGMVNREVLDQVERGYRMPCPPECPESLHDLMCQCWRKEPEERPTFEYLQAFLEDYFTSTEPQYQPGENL", "format": "cell-based"}, "[12]": {"target": "protein kinases (human kinome) (Homo sapiens, UniProt P35790)", "format": "cell-based", "conditions": "CHKA P35790; experiment wp168"}, "[13]": {"target": "protein kinases (human kinome) (Homo sapiens, UniProt P06239)", "format": "cell-based", "conditions": "experiment wp168"}, "[14]": {"target": "protein kinases (human kinome) (Homo sapiens, UniProt P53350)", "sequence (P53350 whole entry)": "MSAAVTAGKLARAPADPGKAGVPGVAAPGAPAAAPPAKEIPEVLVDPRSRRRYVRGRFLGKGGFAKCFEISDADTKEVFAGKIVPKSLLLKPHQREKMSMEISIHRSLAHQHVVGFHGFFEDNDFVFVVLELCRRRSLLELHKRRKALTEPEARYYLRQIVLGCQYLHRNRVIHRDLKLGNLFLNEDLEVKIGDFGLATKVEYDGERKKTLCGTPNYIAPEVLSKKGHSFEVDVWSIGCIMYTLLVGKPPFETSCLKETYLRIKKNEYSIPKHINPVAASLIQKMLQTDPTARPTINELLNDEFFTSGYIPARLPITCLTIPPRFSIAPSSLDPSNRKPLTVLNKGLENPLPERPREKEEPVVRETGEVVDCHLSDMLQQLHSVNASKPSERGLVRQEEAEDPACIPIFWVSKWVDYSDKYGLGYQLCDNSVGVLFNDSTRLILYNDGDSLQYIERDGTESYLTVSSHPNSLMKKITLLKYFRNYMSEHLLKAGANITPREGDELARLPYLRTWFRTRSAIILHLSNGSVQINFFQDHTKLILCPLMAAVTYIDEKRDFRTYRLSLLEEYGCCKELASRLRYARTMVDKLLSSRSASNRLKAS", "format": "cell-based", "conditions": "PLK1 P53350; experiment wp168"}, "[15]": {"target": "protein kinases (human kinome) (Homo sapiens, UniProt P16591)", "sequence (P16591 whole entry)": "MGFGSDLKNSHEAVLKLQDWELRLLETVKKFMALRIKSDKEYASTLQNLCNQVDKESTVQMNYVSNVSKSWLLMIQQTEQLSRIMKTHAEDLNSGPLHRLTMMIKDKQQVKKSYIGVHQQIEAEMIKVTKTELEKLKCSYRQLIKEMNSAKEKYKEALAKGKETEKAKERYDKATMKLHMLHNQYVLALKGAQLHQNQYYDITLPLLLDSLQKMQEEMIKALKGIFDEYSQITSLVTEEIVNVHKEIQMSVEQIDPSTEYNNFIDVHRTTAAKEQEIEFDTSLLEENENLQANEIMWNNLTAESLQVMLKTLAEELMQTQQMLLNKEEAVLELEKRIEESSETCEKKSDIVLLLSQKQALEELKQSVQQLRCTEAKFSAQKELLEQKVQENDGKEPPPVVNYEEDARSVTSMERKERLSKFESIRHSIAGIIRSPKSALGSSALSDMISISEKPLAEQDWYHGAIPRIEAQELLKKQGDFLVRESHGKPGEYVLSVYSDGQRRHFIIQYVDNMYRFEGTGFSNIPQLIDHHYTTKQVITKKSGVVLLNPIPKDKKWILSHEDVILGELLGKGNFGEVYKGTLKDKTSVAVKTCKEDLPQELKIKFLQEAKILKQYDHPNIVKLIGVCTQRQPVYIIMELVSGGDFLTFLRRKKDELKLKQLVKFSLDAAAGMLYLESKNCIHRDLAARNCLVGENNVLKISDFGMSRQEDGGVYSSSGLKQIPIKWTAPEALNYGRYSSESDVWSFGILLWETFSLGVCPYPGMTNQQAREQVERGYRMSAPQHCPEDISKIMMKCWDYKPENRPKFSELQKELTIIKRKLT", "format": "cell-based"}, "[16]": {"target": "protein kinases (human kinome) (Homo sapiens, UniProt Q9HBH9)", "sequence (Q9HBH9 whole entry)": "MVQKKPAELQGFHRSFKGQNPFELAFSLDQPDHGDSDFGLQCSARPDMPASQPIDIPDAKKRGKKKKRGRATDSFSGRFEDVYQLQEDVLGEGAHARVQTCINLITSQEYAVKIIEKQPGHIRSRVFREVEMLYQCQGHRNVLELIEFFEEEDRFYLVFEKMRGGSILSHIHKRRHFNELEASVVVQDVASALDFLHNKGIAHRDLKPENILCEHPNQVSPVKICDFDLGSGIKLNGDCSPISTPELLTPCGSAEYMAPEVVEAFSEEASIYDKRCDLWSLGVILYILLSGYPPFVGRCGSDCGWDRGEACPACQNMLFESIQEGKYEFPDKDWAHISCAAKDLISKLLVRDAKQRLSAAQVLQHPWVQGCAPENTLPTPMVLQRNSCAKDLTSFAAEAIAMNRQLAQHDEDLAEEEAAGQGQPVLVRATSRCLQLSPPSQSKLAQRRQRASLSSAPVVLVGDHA", "format": "cell-based"}, "[17]": {"target": "protein kinases (human kinome) (Homo sapiens, UniProt P04183)", "format": "cell-based", "conditions": "TK1 (P04183); experiment wp168"}, "[18]": {"target": "protein kinases (human kinome) (Homo sapiens, UniProt P53667)", "format": "cell-based", "conditions": "LIMK1 (P53667-1), experiment wp168"}, "[19]": {"target": "protein kinases (human kinome) (Homo sapiens, UniProt P51451)", "format": "cell-based"}, "[20]": {"conditions": "Experiment wp168, direction down"}}, "note": "Where two headings read alike, the source gives them in different places.", "data": [{"smiles": "Cc1ccc(NC(=O)c2cccc(C(F)(F)F)c2)cc1N1Cc2cnc(Nc3ccc(N4CCN(CCOc5cccc6c5C(=O)N(C5CCC(=O)NC5=O)C6=O)CC4)nc3)nc2N(C)C1=O", "note": "(stereo not drawn) [DB0661]", "values": [{"measurement": "logFC PFKFB3", "setting": "[1]", "result": "−0.4392"}, {"measurement": "logFC TNK2 (Q07912-1)", "setting": "[2]; [20]", "result": "−0.3873"}, {"measurement": "logFC TNK2", "setting": "[2]; TNK2 (Q07912-1), experiment wp168", "result": "−0.3873"}, {"measurement": "logFC of CSK", "setting": "[3]; Accession P41240", "result": "−1.526"}, {"measurement": "logFC CSK", "setting": "[3]; CSK (P41240), down", "result": "−1.526"}, {"measurement": "logFC CDK4 (P11802)", "setting": "[4]", "result": "−0.4978"}, {"measurement": "logFC MAPK8 (P45983-4)", "setting": "[5]; [20]", "result": "−0.5033"}, {"measurement": "logFC MAPK8", "setting": "[5]; MAPK8 P45983-4, experiment wp168", "result": "−0.5033"}, {"measurement": "logFC", "setting": "[5]; PTK2B (Q14289-2), experiment wp168, direction down", "result": "−1.935"}, {"measurement": "logFC PTK2B", "setting": "[5]; PTK2B, accession Q14289-2, experiment wp168, direction of change down", "result": "−1.935"}, {"measurement": "kinases the bifunctional compound degrades", "setting": "[5]; as stated for the structure in the embodiments", "result": "BLK, CDK4, CLK1, CSK, FER, LCK, LIMK1, MAPK8, MAPK9, MKNK2, PLK1, PTK2B, SIKA2, SRC, TNK2, UHMK1, and YES1"}, {"measurement": "Kinase hits", "setting": "[5]; kinases significantly downregulated vs DMSO (fold change cutoff −1.25, P-value<0.01), ≤8 h, 0.1-5 μM degrader, 7 cell lines", "result": "BLK, CDK4, CLK1, CSK, FER, LCK, LIMK1, MAPK8, MAPK9, MKNK2, PLK1, PTK2B, SIKa2, SRC, TNK2, UHMK1, YES1"}, {"measurement": "Total no. kinase hits", "setting": "[5]; number of degraded kinases per library compound", "result": 17}, {"measurement": "logFC CLK1", "setting": "[6]; CLK1 P49759, experiment wp168", "result": "−0.3319"}, {"measurement": "logFC of CLK1 (P49759)", "setting": "[6]; Experiment wp168", "result": "−0.3319"}, {"measurement": "logFC", "setting": "[7]", "result": "−1.961"}, {"measurement": "logFC MAPK9", "setting": "[7]", "result": "−1.961"}, {"measurement": "logFC", "setting": "[8]", "result": "−0.5229"}, {"measurement": "logFC", "setting": "[8]; direction down", "result": "−0.5229"}, {"measurement": "logFC UHMK1", "setting": "[9]; Accession Q8TAS1, direction down", "result": "−0.416"}, {"measurement": "logFC UHMK1", "setting": "[9]; UHMK1 (Q8TAS1)", "result": "−0.416"}, {"measurement": "logFC of SIK2", "setting": "[10]; Accession Q9H0K1", "result": "−0.3628"}, {"measurement": "logFC SIK2 (Q9H0K1)", "setting": "[10]; direction of change down", "result": "−0.3628"}, {"measurement": "logFC of SRC", "setting": "[11]; Accession P12931, experiment wp168", "result": "−0.6685"}, {"measurement": "logFC of SRC (P12931)", "setting": "[11]; Experiment wp168", "result": "−0.6685"}, {"measurement": "logFC", "setting": "[12]", "result": "−0.3607"}, {"measurement": "logFC LCK", "setting": "[13]; LCK P06239-1", "result": "−0.4717"}, {"measurement": "logFC LCK", "setting": "[13]; LCK, accession P06239-1, direction of change down", "result": "−0.4717"}, {"measurement": "logFC", "setting": "[14]", "result": "−0.3453"}, {"measurement": "logFC PLK1", "setting": "[14]", "result": "−0.3453"}, {"measurement": "logFC of FER (P16591-1)", "setting": "[15]; Experiment wp168, down", "result": "−0.6143"}, {"measurement": "logFC of FER", "setting": "[15]; FER P16591-1, experiment wp168", "result": "−0.6143"}, {"measurement": "logFC MKNK2 (Q9HBH9-1)", "setting": "[16]; [20]", "result": "−0.5094"}, {"measurement": "logFC", "setting": "[16]; MKNK2 (Q9HBH9-1), experiment wp168", "result": "−0.5094"}, {"measurement": "logFC", "setting": "[17]", "result": "−0.3523"}, {"measurement": "logFC LIMK1", "setting": "[18]; direction down", "result": "−1.116"}, {"measurement": "logFC LIMK1", "setting": "[18]; down", "result": "−1.116"}, {"measurement": "logFC BLK", "setting": "[19]; BLK (P51451), direction down, experiment wp168", "result": "−1.428"}, {"measurement": "logFC of BLK (P51451)", "setting": "[19]; Experiment wp168, down", "result": "−1.428"}]}]}
